Assay results reported in PubChem BioAssay (NCI).
Values joined by “and” are separate entries in the source; they are usually repeats but may differ in a detail not shown here. Equal entries are not always repeated.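 48-hour exposure; five concentrations; linearly interpolated endpoints. Abbreviation: GI50, concentration required for 50% inhibition of growth. TGI: total growth inhibition.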

Legend:
Test in all cases: NCI anticancer screen, dose series, 48 h
CCRF-CEM leukemia = tested on: CCRF-CEM leukemia
UACC-62 melanoma = tested on: UACC-62 melanoma
SK-MEL-2 melanoma = tested on: SK-MEL-2 melanoma
NCI-H23 lung = tested on: NCI-H23 lung
OVCAR-5 ovarian = tested on: OVCAR-5 ovarian
MDA-MB-231 breast = tested on: MDA-MB-231 breast
ACHN renal = tested on: ACHN renal
BT-549 breast = tested on: BT-549 breast
COLO 205 colon = tested on: COLO 205 colon
MDA-MB-435 = tested on: MDA-MB-435

| Structure (SMILES) | GI50 (CCRF-CEM leukemia) [nM] | TGI (CCRF-CEM leukemia) [µM] | GI50 (UACC-62 melanoma) | TGI (UACC-62 melanoma) | GI50 (SK-MEL-2 melanoma) | TGI (SK-MEL-2 melanoma) | GI50 (NCI-H23 lung) [µM] | TGI (NCI-H23 lung) | GI50 (OVCAR-5 ovarian) | TGI (OVCAR-5 ovarian) | GI50 (MDA-MB-231 breast) | TGI (MDA-MB-231 breast) | GI50 (ACHN renal) | TGI (ACHN renal) | GI50 (BT-549 breast) | TGI (BT-549 breast) | GI50 (COLO 205 colon) | TGI (COLO 205 colon) | GI50 (MDA-MB-435) | TGI (MDA-MB-435) |
| --- | --- | --- | --- | --- | --- | --- | --- | --- | --- | --- | --- | --- | --- | --- | --- | --- | --- | --- | --- | --- |
| Nc1n[nH]c2ccc([C@@H]3Nc4cc5[nH]ncc5cc4[C@H]4C5CCC(C5)[C@@H]34)cc12 (stereo not given in full) | 344 | > 40.4 | 272 nM | 17.4 µM | 0.736 µM | > 70.5 µM | 0.472 | > 71.7 µM | 0.565 µM | > 80.9 µM | 764 nM | 98.1 µM | 723 nM | 53.5 µM | 0.725 µM | > 46 µM | 424 nM | > 40.6 µM | 300 nM | 6.85 µM |
| COc1cc(C2CC(=O)Nc3c2cc(Br)c2ccccc32)cc(Br)c1OC (stereo not given) | 2010 | 21.5 | 1640 nM | > 100 µM | 3.67 µM | 27.2 µM | 4.37 | > 100 µM | 3.02 µM | > 100 µM | 2660 nM | 7.42 µM | – | – | 3.47 µM | > 71 µM | 2060 nM | > 100 µM | 247 nM | 0.864 µM |
| CCN(CC)C(=S)SSC(=S)N(CC)CC | 10300 | 27.6 | 15200 nM and 18100 nM | 30.4 µM and 44.5 µM | 26.3 µM and 82.2 µM | 71.1 µM and 297 µM | 23 | > 76.7 µM and 70.1 µM | 35.4 µM and 17.9 µM | > 56 µM and 32.6 µM | 16100 nM and 16700 nM | 32.5 µM and 34.3 µM | 19000 nM and 18000 nM | 36.9 µM and 34.4 µM | 19.2 µM and 19.9 µM | 38 µM and 44.2 µM | 17000 nM and 15400 nM | 31.8 µM and 30.1 µM | 15600 nM and 18700 nM | 43.5 µM and 53.3 µM |
| CN(c1ccc(C#N)c(Cl)c1)C1CCC(NC(=O)c2ccc(N3CCN(C4CN(c5ccc6c(c5)C(=O)N(C5CCC(=O)NC5=O)C6=O)C4)CC3)cc2)CC1 (stereo not given) | > 100000 | > 100 | > 100000 nM | > 100 µM | > 100 µM | > 100 µM | > 100 | > 100 µM | 47.6 µM | > 100 µM | 18900 nM | 41.6 µM | > 100000 nM | > 100 µM | 98.6 µM | > 100 µM | > 100000 nM | > 100 µM | > 100000 nM | > 100 µM |
| COc1ccc2c(c1)C(=O)c1c-2c(N2CCNCC2)nc2ccccc12 | 1360 | 2.94 | 3550 nM | 12.1 µM | 4.62 µM | 21.2 µM | – | – | 14.4 µM | 30.2 µM | 3210 nM | 11.1 µM | 2780 nM | 8.24 µM | 3.4 µM | 11.4 µM | 1660 nM | 3.28 µM | 4930 nM | 17.9 µM |
| CCOC1OC(=O)[C@H]2[C@@H]1[C@@H]1CC[C@H]2O1 (stereo not given in full) | > 100000 | > 100 | > 100000 nM | > 100 µM | > 100 µM | > 100 µM | > 100 | > 100 µM | > 100 µM | > 100 µM | > 100000 nM | > 100 µM | > 100000 nM | > 100 µM | > 100 µM | > 100 µM | 7960 nM | > 19.8 µM | > 100000 nM | > 100 µM |
| COc1cc2c(c(OC)c1OC)-c1c(cc3c(c1OC)OCO3)CC(C)C(C)(O)C2OC(=O)c1ccccc1 (stereo not given) | – | 63.9 | – | > 100 µM | – | 80.5 µM | – | > 100 µM | – | > 100 µM | – | 57.8 µM | – | > 100 µM | – | > 100 µM | – | 53.5 µM | – | > 100 µM |
| CCN(CC)CCCC(C)Nc1c(-c2ccccc2)cnc2cc(Cl)ccc12 (stereo not given) | 14400 | > 100 | 2370 nM | 6.26 µM | 6.56 µM | 13.8 µM | 11 | 28.5 µM | 10.5 µM | 27 µM | 3500 nM | 13.2 µM | 13000 nM | 36.6 µM | 8.76 µM | 22.3 µM | 1600 nM | 3.23 µM | 2240 nM | 5.31 µM |
| O=C(Nc1cnc(C(F)(F)F)cn1)c1cc(Cl)ccc1O | 406 | > 100 | 191 nM | 1.48 µM | 0.271 µM | 0.84 µM | 0.257 | 1.22 µM | 0.343 µM | > 100 µM | 270 nM | 0.946 µM | 269 nM | 1.16 µM | 0.255 µM | 0.835 µM | 1540 nM | 3.14 µM | 318 nM | 3.23 µM |
| O=C1/C(=C/c2cccc(Br)c2)COc2ccc(O)c(O)c21 | 312 | 1.69 | 1640 nM | 3.14 µM | 1.53 µM | 3.11 µM | 1.74 | 4.25 µM | 1.93 µM | 3.74 µM | 1400 nM | 3.35 µM | 1240 nM | 2.5 µM | 2.03 µM | 4.35 µM | 1540 nM | 3 µM | 1230 nM | 2.76 µM |
| O=NN(CCCl)C(=O)NC1CCC(=O)NC1=O (stereo not given) | – | 304 | – | 192 µM | – | 405 µM | – | 842 µM | – | > 1210 µM | – | 674 µM | – | > 1250 µM | – | 593 µM | – | 684 µM | – | 442 µM |
| Brc1cccc(-c2cc(-c3ccc4nccnc4c3)[nH]n2)c1 | 864 | > 250 | 1350 nM | > 250 µM | 1.55 µM | > 250 µM | 1.33 | > 250 µM | 2.64 µM | > 250 µM | 2940 nM | 23.7 µM | 1720 nM | > 250 µM | 2.15 µM | > 250 µM | 286 nM | 3.93 µM | 74.3 nM | 0.412 µM |
| COc1cccc(C2C(C#N)=C(N)Oc3c2ccc2ccccc32)c1 (stereo not given) | 35.3 | 18.2 | < 10 nM | 19.8 µM | 0.0588 µM | 16.5 µM | 0.026 | 6.74 µM | 0.0801 µM | 19.8 µM | 43.3 nM | 16.3 µM | < 10 nM | 13.4 µM | 0.029 µM | 12.1 µM | 132 nM | 0.639 µM | < 10 nM | – |
